Assay results taken from ChEMBL document CHEMBL5137024, “Discovery of novel coumarin-indole derivatives as tubulin polymerization inhibitors with potent anti-gastric cancer activities” (Eur J Med Chem, 2022).
pIC50: −log10 of the molar value. Active and inactive are the calls of the source. The rule behind the calls is not given here.

Key:
[1] = Induction of mitochondria mediated intrinsic apoptosis in human MGC-803 cells assessed as early apoptotic cells at 5 nM measured after 48 hrs by flow cytometry analysis (Rvb= 1.6%); assay type: functional
[2] = target: T1, Tubulin (Homo sapiens) (UniProt P68371+Q9H4B7+P0DPH7+P68366+Q13509+Q71U36+P04350+Q3ZCM7+P07437+P68363+Q9BQE3+Q6PEY2+Q13885+Q9BVA1+Q9BUF5); assay: Disruption of microtubule network in human HGC-27 cells assessed as irregular form of filamentous microtubule structures at 10 to 30 nM measured after 48 hrs by DAPI staining based fluorescence microscopic analysis; assay type: cell-based; details: dose 10-30 nM
[3] = tested on: MGC-803; assay: Upregulation of phosphorylated Histone H3 expression in human MGC-803 cells at 5 to 15 nM incubated for 48 hrs; assay type: functional, cell-based; details: dose 5-15 nM
[4] = tested on: HepG2; assay: Antiproliferative activity against human HepG2 cells assessed as reduction in cell viability incubated for 48 hrs by MTT assay; assay type: functional, cell-based; details: HepG2, 48 h
[5] = tested on: HGC-27; assay: Induction of apoptosis in human HGC-27 cells assessed as decrease in cIAP-1 level; assay type: functional, cell-based; details: dose 10-30 nM, DDE = dose-dependent effect
[6] = tested on: Mus musculus; assay: Upregulation of phosphorylated Histone H3 expression in tumor tissue of BALB/c nude mouse xenografted with human MGC-803 cells at 15 to 30 mg/kg, ip administered once daily for 21 days by Western blotting analysis; assay type: functional, organism-based; details: dose 15-30 mg/kg, time 21.0 day
[7] = tested on: MGC-803; assay: Induction of apoptosis in human MGC-803 cells assessed as decrease in cell density at 5 to 15 nM incubated for 48 hrs by bright field imaging analysis; assay type: functional, cell-based; details: dose 5-15 nM
[8] = tested on: MGC-803; assay: Inhibition of p38 signalling pathway in human MGC-803 cells assessed as reduction in MKK3/6 phosphorylation at 5 to 15 nM incubated for 48 hrs; assay type: cell-based; details: dose 5-15 nM
[9] = tested on: MGC-803; assay: Inhibition of colony formation in human MGC-803 cells incubated for 7 days by crystal violet staining based analysis; assay type: functional, cell-based; details: dose 2-10 nM, time 7.0 day, DDE = dose-dependent effect
[10] = tested on: MGC-803; assay: Induction of DNA damage in human MGC-803 cells by comet assay; assay type: functional, cell-based; details: dose 5-15 nM, DDE = dose-dependent effect
[11] = tested on: HGC-27; assay: Induction of apoptosis in human HGC-27 cells assessed as increase in cleavage caspase 3 level; assay type: functional, cell-based; details: dose 10-30 nM, DDE = dose-dependent effect
[12] = tested on: KYSE-450; assay: Antiproliferative activity against human KYSE-450 cells assessed as reduction in cell viability incubated for 48 hrs by MTT assay; assay type: functional, cell-based; details: KYSE-450, 48 h
[13] = tested on: MGC-803; assay: Induction of apoptosis in human MGC-803 cells assessed as upregulation of cleavage caspase 8 level; assay type: functional, cell-based; details: dose 5-15 nM, DDE = dose-dependent effect
[14] = target: T1, Tubulin (Homo sapiens); assay: Disruption of microtubule network in human HGC-27 cells assessed as incomplete mitosis at 10 to 30 nM measured after 48 hrs by DAPI staining based fluorescence microscopic analysis; assay type: cell-based; details: dose 10-30 nM
[15] = tested on: HGC-27; assay: Induction of apoptosis in human HGC-27 cells assessed as increase in Noxa level; assay type: functional, cell-based; details: dose 10-30 nM, DDE = dose-dependent effect
[16] = Toxicity in BALB/c nude mouse xenografted with human MGC-803 cells assessed as pathological changes in lung at 15 to 30 mg/kg, ip administered once daily for 21 days by Hematoxyin-eosin staining based analysis; assay type: organism-based; details: in vivo, 504 h, dose 15-30 mg/kg, time 21 day
[17] = tested on: MGC-803; assay: Induction of apoptosis in human MGC-803 cells assessed as increase in cleavage substrate PARP level; assay type: functional, cell-based; details: dose 5-15 nM, DDE = dose-dependent effect
[18] = tested on: HGC-27; assay: Inhibition of colony formation in human HGC-27 cells incubated for 7 days by crystal violet staining based analysis; assay type: functional, cell-based; details: dose 3-15 nM, time 7.0 day, DDE = dose-dependent effect
[19] = tested on: HGC-27; assay: Induction of apoptosis in human HGC-27 cells assessed as increase in cleavage caspase 7 level; assay type: functional, cell-based; details: dose 10-30 nM, DDE = dose-dependent effect
[20] = tested on: Mus musculus; assay: Upregulation of PARP expression in tumor tissue of BALB/c nude mouse xenografted with human MGC-803 cells at 15 to 30 mg/kg, ip administered once daily for 21 days by Western blotting analysis; assay type: functional, organism-based; details: dose 15-30 mg/kg, time 21.0 day
[21] = tested on: Mus musculus; assay: Downregulation of Ki67 expression in tumor tissue of BALB/c nude mouse xenografted with human MGC-803 cells at 15 to 30 mg/kg, ip administered once daily for 21 days by immunohistochemistry analysis; assay type: functional, organism-based; details: dose 15-30 mg/kg, time 21.0 day
[22] = Toxicity in BALB/c nude mouse xenografted with human MGC-803 cells assessed as pathological changes in heart at 15 to 30 mg/kg, ip administered once daily for 21 days by Hematoxyin-eosin staining based analysis; assay type: organism-based; details: in vivo, 504 h, dose 15-30 mg/kg, time 21 day
[23] = tested on: A549; assay: Antiproliferative activity against human A549 cells assessed as reduction in cell viability incubated for 48 hrs by MTT assay; assay type: functional, cell-based; details: A549, 48 h
[24] = tested on: HGC-27; assay: Downregulation of cyclin B1 expression in human HGC-27 cells at 10 to 30 nM incubated for 48 hrs; assay type: functional, cell-based; details: dose 10-30 nM
[25] = target: Tubulin beta (Homo sapiens) (UniProt P68371+Q9H4B7+Q13509+P04350+Q3ZCM7+P07437+Q13885+Q9BVA1+Q9BUF5+A6NNZ2); assay: Binding affinity to beta-tubulin colchicine binding site in human HGC-27 cells assessed as decrease in beta-tubulin adduct band incubated for 2 hrs by EBI alkylate competition assay; assay type: cell-based; details: dose 0.075-0.75 µM, DDE = dose-dependent effect
[26] = tested on: MGC-803; assay: Induction of apoptosis in human MGC-803 cells assessed as decrease in cIAP-1 level; assay type: functional, cell-based; details: dose 5-15 nM, DDE = dose-dependent effect
[27] = tested on: Mus musculus; assay: Downregulation of p38 phosphorylation in tumor tissue of BALB/c nude mouse xenografted with human MGC-803 cells at 15 to 30 mg/kg, ip administered once daily for 21 days by Western blotting analysis; assay type: functional, organism-based; details: dose 15-30 mg/kg, time 21.0 day
[28] = tested on: HGC-27; assay: Antiproliferative activity against human HGC-27 cells assessed as reduction in cell viability incubated for 48 hrs by MTT assay; assay type: functional, cell-based; details: HGC-27, 48 h
[29] = target: T1, Tubulin (Homo sapiens); assay: Disruption of microtubule network in human MGC-803 cells assessed as incomplete mitosis at 5 to 15 nM measured after 48 hrs by DAPI staining based fluorescence microscopic analysis; assay type: cell-based; details: dose 5-15 nM
[30] = tested on: MGC-803; assay: Antiinvasive activity against human MGC-803 cells assessed as reduction in number of cells in membrane incubated for 48 hrs by trans well assay; assay type: functional, cell-based; details: dose 5-15 nM, DDE = dose-dependent effect
[31] = target: Tubulin (Sus scrofa, UniProt P02554+P02550); assay: Inhibition of porcine brain tubulin polymerization by fluorescence based assay; assay type: tissue-based
[32] = tested on: Mus musculus; assay: Downregulation of ERK1/2 phosphorylation in tumor tissue of BALB/c nude mouse xenografted with human MGC-803 cells at 15 to 30 mg/kg, ip administered once daily for 21 days by Western blotting analysis; assay type: functional, organism-based; details: dose 15-30 mg/kg, time 21.0 day
[33] = tested on: HGC-27; assay: Induction of apoptosis in human HGC-27 cells assessed as decrease in Bcl-2 level; assay type: functional, cell-based; details: dose 10-30 nM, DDE = dose-dependent effect
[34] = tested on: HGC-27; assay: Inhibition of ERK signalling pathway in human HGC-27 cells assessed as downregulation of MEK1/2 phosphorylation at 10 to 30 nM incubated for 48 hrs; assay type: cell-based; details: dose 10-30 nM
[35] = Toxicity in BALB/c nude mouse xenografted with human MGC-803 cells assessed as pathological changes in kidney at 15 to 30 mg/kg, ip administered once daily for 21 days by Hematoxyin-eosin staining based analysis; assay type: organism-based; details: in vivo, 504 h, dose 15-30 mg/kg, time 21 day
[36] = tested on: HGC-27; assay: Induction of apoptosis in human HGC-27 cells assessed as decrease in Mcl-1 level; assay type: functional, cell-based; details: dose 10-30 nM, DDE = dose-dependent effect

Q: With `CN(c1ccc2c(ccn2C)c1)c1cc(=O)oc2ccccc12` as the molecule, how does the Activity [1] read?
A: The Activity was 1.8%.

Q: And the Activity [2]?
A: The Activity was “Active”.

Q: What about the Activity [3] of the same molecule?
A: The Activity was “Active”.

Q: And the pIC50 [4]?
A: Its pIC50 is 7.34.

Q: And the Activity [5]?
A: Its Activity is “Dde”.

Q: What about the Activity [6] of the same molecule?
A: Its Activity is “Active”.

Q: What about the Activity [7] of the same molecule?
A: The Activity was “Active”.

Q: What about the inhibition [8] of the same molecule?
A: Its inhibition is “Active”.

Q: What about the inhibition [9] of the same molecule?
A: Its inhibition is “Dde”.

Q: And the Activity [10]?
A: The Activity was “Dde”.

Q: What about the Activity [11] of the same molecule?
A: Its Activity is “Dde”.

Q: And the pIC50 [12]?
A: Its pIC50 is 7.68.

Q: What about the Activity [13] of the same molecule?
A: Its Activity is “Dde”.

Q: What about the Activity [14] of the same molecule?
A: The Activity was “Active”.

Q: What about the Activity [15] of the same molecule?
A: The Activity was “Dde”.

Q: What about the Activity [16] of the same molecule?
A: Its Activity is “Non-Toxic”.

Q: And the Activity [17]?
A: The Activity was “Dde”.

Q: What about the inhibition [18] of the same molecule?
A: Its inhibition is “Dde”.

Q: What about the Activity [19] of the same molecule?
A: Its Activity is “Dde”.

Q: What about the Activity [20] of the same molecule?
A: Its Activity is “Active”.

Q: What about the Activity [21] of the same molecule?
A: The Activity was “Active”.

Q: What about the Activity [22] of the same molecule?
A: Its Activity is “Non-Toxic”.

Q: What about the pIC50 [23] of the same molecule?
A: The pIC50 was 7.23.

Q: What about the Activity [24] of the same molecule?
A: The Activity was “Active”.

Q: What about the Activity [25] of the same molecule?
A: The Activity was “Dde”.

Q: And the Activity [26]?
A: The Activity was “Dde”.

Q: What about the Activity [27] of the same molecule?
A: Its Activity is “Active”.

Q: What about the pIC50 [28] of the same molecule?
A: Its pIC50 is 7.62.

Q: What about the Activity [29] of the same molecule?
A: Its Activity is “Active”.

Q: What about the Activity [30] of the same molecule?
A: Its Activity is “Dde”.

Q: And the IC50 [31]?
A: The IC50 was 2460 nM.

Q: What about the Activity [32] of the same molecule?
A: Its Activity is “Active”.

Q: And the Activity [33]?
A: Its Activity is “Dde”.

Q: What about the inhibition [34] of the same molecule?
A: The inhibition was “Active”.

Q: And the Activity [35]?
A: Its Activity is “Non-Toxic”.

Q: What about the Activity [36] of the same molecule?
A: Its Activity is “Dde”.
